Measured values published in patent US5407940A, “New ellipticine compounds” (priority 1992, dated 1995).

Columns and labels:
[1] = test system: L1210; assay: Cytotoxicity, line L1210 (Microculture Tetrazolium Assay); format: cell-based, murine; details: for IC50: Mus musculus, L1210, 48 h, 2 days incubation, read-out: Cytotoxicity IC50, line L1210; for times more cytotoxic than adriamycin / times more cytotoxic than elliptinium acetate: L1210
Source text: (§1) The cells are distributed on microplates and exposed to the cytotoxic compounds.

[2] = test system: P388; assay: Cytotoxicity, sensitive line P388 (Microculture Tetrazolium Assay); format: cell-based, murine; details: Mus musculus, P388, 48 h; 2 days incubation; read-out: Cytotoxicity IC50, sensitive P388
Source text: as §1

[3] = test system: KB-3-1; assay: Cytotoxicity, sensitive line KB-3-1; format: cell-based; details: Homo sapiens, KB 3-1, 96 h; 4 days incubation; read-out: Cytotoxicity IC50, sensitive KB-3-1
Source text: as §1

[4] = test system: S1; assay: Cytotoxicity, sensitive line S1; format: cell-based; details: Homo sapiens, 96 h; 4 days incubation; read-out: Cytotoxicity IC50, sensitive S1
Source text: as §1

[5] = test system: colon 38; assay: Anti-tumour activity against colon 38; format: in vivo, female B6D2F1 mice; details: for median T/C (tumour volume): d2 and d9, d25
Protocol: Colon 38 (supplied by NCI, Frederick, USA) was inserted in the form of fragments by the subcutaneous route into female B6D2F1 mice. The compounds were administered by the i.v. route on d2 and d9 and the anti-tumour activity was determined on […] by measuring the tumour volume (T/C volume, %).

[6] = test system: P388/VCR-20; details: for resistance factor: P388/VCR-20 vs P388; for sensitivity of resistant line P388/VCR-20 relative to corresponding sensitive line: vs P388
[7] = test system: KB-A1; details: KB-A1 vs KB-3-1
[8] = test system: S1/tMDR; details: for resistance factor: S1/tMDR vs S1; for sensitivity of resistant line S1/tMDR relative to corresponding sensitive line: vs S1
[9] = test system: P388/VCR-20; assay: cells; details: Mus musculus, P388, 48 h, read-out: Cytotoxicity IC50, resistant P388/VCR-20
[10] = test system: KB-A1; assay: cells; details: Homo sapiens, KB-A1, 96 h, read-out: Cytotoxicity IC50, resistant KB-A1
[11] = test system: S1/tMDR; assay: cells; details: Homo sapiens, 96 h, read-out: Cytotoxicity IC50, resistant S1/tMDR
[12] = test system: leukaemia P388; assay: Anti-tumour activity against leukaemia P388 in vivo; details: for Survivors on d60/total no. of mice / T/C: intraperitoneal, day 1
[13] = test system: Lewis pulmonary carcinoma; assay: Anti-tumour activity against Lewis pulmonary carcinoma; format: in vivo, female B6D2F1 mice; details: for Survivors on d90 / median T/C (survival) / median T/C (volume) d20: i.v., d3, d6, d9
[14] = test system: M5076 sarcoma; assay: Anti-tumour activity against M5076 sarcoma; format: in vivo, female B6D2F1 mice; details: for Survivors on d90 / median T/C (survival): i.p., d1, d5, d9, d13
Protocol: M5076 sarcoma is supplied by NCI (Frederick, USA). The tumour cells (10^7 cells/animal) were inoculated on d0 into the peritoneal cavity of female B6D2F1 mice. The compounds were administered by the i.p. route on d1, d5, d9 and d13 at the doses indicated. The surviving animals on d90 were recorded and the T/C survival (%) was calculated.

COc1ccc2[nH]c3c(C)c4ccnc(C(=O)NCCCN(C)C)c4cc3c2c1 [Example 5, 1-(N,N-Dimethylaminopropylaminocarbonyl) -5-methyl-9-methoxy-6H-pyrido[4,3-b]carbazole]
IC50 [1]: 1500 nM

Cc1c2ccnc(C(=O)NCCCN(C)C)c2cc2c1[nH]c1ccc(O)cc12 [Example 7, 1-(N,N-Dimethylaminopropylaminocarbonyl)-5-methyl-9-hydroxy-6H-pyrido[4,3-b]carbazole]
IC50 [1]: 41 nM

Cc1c2ccnc(C(=O)NCCCN(C)C)c2cc2c3cc(O)ccc3n(C)c12 [Example 2, 1-(N,N-Dimethylaminopropylaminocarbonyl)-5,6-dimethyl-9-hydroxy-6H-pyrido[4,3-b]carbazole]
times more cytotoxic than adriamycin [1]: approximately 9 times
times more cytotoxic than elliptinium acetate [1]: ~46 times
IC50 [1]: 4.3 nM
IC50 [2]: 11 nM
IC50 [3]: 19 nM
IC50 [4]: 57 nM
T/C ([5]; 20 mg/kg and above, i.v.): 0%
activity against that solid tumour (in words) ([5]; 20 mg/kg and above, i.v.): very active
median T/C (tumour volume) ([5]; 20 mg/kg, i.v.): 0%
median T/C (tumour volume) ([5]; 40 mg/kg, i.v.): 0%
median T/C (tumour volume) ([5]; 60 mg/kg, i.v.): 0%
activity relative to 5-fluorouracyle ([5]; 5-Fu at 80 mg/kg): as active as
resistance factor [6]: 3,4
resistance factor [7]: 64
resistance factor [8]: 0,7
IC50 [9]: 38 nM
IC50 [10]: 1220 nM
IC50 [11]: 38 nM
Survivors on d60/total no. of mice ([12]; 5 mg/kg): 0/10
T/C ([12]; 5 mg/kg): 177%
Survivors on d60/total no. of mice ([12]; 10 mg/kg): 0/10
T/C ([12]; 10 mg/kg): 190%
Survivors on d60/total no. of mice ([12]; 20 mg/kg): 3/10
T/C ([12]; 20 mg/kg): 250%
Survivors on d60/total no. of mice ([12]; 30 mg/kg): 1/10
T/C ([12]; 30 mg/kg): 204%
Survivors on d60/total no. of mice ([12]; 40 mg/kg): 2/10
T/C ([12]; 40 mg/kg): 219%
Survivors on d60/total no. of mice ([12]; 50 mg/kg): 3/10
T/C ([12]; 50 mg/kg): 222%
Survivors on d60/total no. of mice ([12]; 60 mg/kg): 3/10
T/C ([12]; 60 mg/kg): 248%

COc1ccc2c(c1)c1cc3c(C(=O)NCCCN(C)C)nccc3c(C)c1n2C [Example 4, 1-(N,N-Dimethylaminopropylaminocarbonyl)-5,6-dimethyl-9-methoxy-6H-pyrido[4,3-b]carbazole]
IC50 [1]: 875 nM

O=c1[nH]cc(F)c(=O)[nH]1 [Example 5-Fu, 5-fluorouracyle, reference compound]
median T/C (tumour volume) ([5]; 80 mg/kg, i.v.): 0%

Cc1c2ccnc(C(=O)NCCCN3CCOCC3)c2cc2c3cc(O)ccc3n(C)c12 [Example 14, 1-[N-(3-Morpholinopropyl)aminocarbonyl]-5,6-dimethyl-9-hydroxy-6H-pyrido[4,3-b]carbazole]
IC50 [1]: 10.4 nM

Cc1c2ccnc(C(=O)NCCCCN)c2cc2c3cc(O)ccc3n(C)c12 [Example 12, 1-[(4-Aminobutyl)aminocarbonyl]-5,6-dimethyl-9-hydroxy-6H-pyrido[4,3-b]carbazole]
IC50 [1]: 450 nM

Cc1c2ccnc(C(=O)NCCNCCO)c2cc2c3cc(O)ccc3n(C)c12 [Example 11, 1-{2-[(2-Hydroxyethyl)amino]ethylaminocarbonyl}-5,6-dimethyl-9-hydroxy-6H-pyrido [4,3-b]carbazole]
IC50 [1]: 29.7 nM

Cc1c2ccnc(C(=O)NCCN(C)C)c2cc2c1[nH]c1ccc(O)cc12 [Example 6, 1-(N,N-Dimethylaminoethylaminocarbonyl)-5-methyl-9-hydroxy-6H-pyrido[4,3-b]carbazole]
times more cytotoxic than adriamycin [1]: approximately 9 times
times more cytotoxic than elliptinium acetate [1]: ~46 times
IC50 [1]: 3.1 nM
IC50 [2]: 19 nM
IC50 [3]: 20 nM
IC50 [4]: 42 nM
median T/C (tumour volume) ([5]; 10 mg/kg, i.v.): 35%
median T/C (tumour volume) ([5]; 20 mg/kg, i.v.): 22%
median T/C (tumour volume) ([5]; 30 mg/kg, i.v.): 0%
resistance factor [6]: 0,5
sensitivity of resistant line P388/VCR-20 relative to corresponding sensitive line [6]: more sensitive
resistance factor [7]: 37
resistance factor [8]: 0,7
sensitivity of resistant line S1/tMDR relative to corresponding sensitive line [8]: more sensitive
IC50 [9]: 10 nM
IC50 [10]: 737 nM
IC50 [11]: 29 nM
Survivors on d60/total no. of mice ([12]; 5 mg/kg): 4/10
T/C ([12]; 5 mg/kg): 280%
Survivors on d60/total no. of mice ([12]; 10 mg/kg): 3/10
T/C ([12]; 10 mg/kg): 233%
Survivors on d60/total no. of mice ([12]; 20 mg/kg): 5/10
T/C ([12]; 20 mg/kg): > 600%
Survivors on d60/total no. of mice ([12]; 30 mg/kg): 7/10
T/C ([12]; 30 mg/kg): > 600%
long-term survivors over all doses employed [12]: all the doses employed giving long-term survivors

COc1ccc2c(c1)c1cc3c(C(=O)NCCN(C)C)nccc3c(C)c1n2C [Example 3, 1-(N,N-Dimethylaminoethylaminocarbonyl)-5,6-dimethyl-9-methoxy-6H-pyrido[4,3-b]carbazole]
IC50 [1]: 574 nM

COc1ccc2[nH]c3c(C)c4ccnc(C(=O)NCCN(C)C)c4cc3c2c1 [Example 8, 1-(N,N-Dimethylaminoethylaminocarbonyl)-5-methyl-9-methoxy-6H-pyrido[4,3-b]carbazole]
IC50 [1]: 487 nM

Cc1c2ccnc(C(=O)NCCN(C)C)c2cc2c3cc(O)ccc3n(C)c12 [Example 1, 1-(N,N-Dimethylaminoethylaminocarbonyl)-5,6-dimethyl-9-hydroxy-6H-pyrido[4,3-b]carbazole]
times more cytotoxic than adriamycin [1]: approximately 9 times
times more cytotoxic than elliptinium acetate [1]: ~46 times
IC50 [1]: 2.6 nM
IC50 [2]: 5 nM
IC50 [3]: 12 nM
IC50 [4]: 49 nM
Survivors on d90 ([13]; 20 mg/kg): 6/10
median T/C (survival) ([13]; 20 mg/kg): > 300%
median T/C (volume) d20 ([13]; 20 mg/kg): 1%
curative for % of the animals ([13]; 40 mg/kg): 100%
Survivors on d90 ([13]; 40 mg/kg): 10/10
median T/C (survival) ([13]; 40 mg/kg): > 300%
median T/C (volume) d20 ([13]; 40 mg/kg): 0%
Survivors on d90 ([13]; 60 mg/kg): 6/10
median T/C (survival) ([13]; 60 mg/kg): > 300%
median T/C (volume) d20 ([13]; 60 mg/kg): 0%
activity against this very resistant model (in words) ([13]; adriamycin at the maximum tolerated dose): very active
Survivors on d90 ([14]; 5 mg/kg): 0/10
median T/C (survival) ([14]; 5 mg/kg): 168%
Survivors on d90 ([14]; 10 mg/kg): 4/10
median T/C (survival) ([14]; 10 mg/kg): 301%
activity against that tumour (in words) ([14]; 20 mg/kg): very active
Survivors on d90 ([14]; 20 mg/kg): 6/10
median T/C (survival) ([14]; 20 mg/kg): > 352%
median T/C (tumour volume) ([5]; 20 mg/kg, i.v.): 41%
median T/C (tumour volume) ([5]; 40 mg/kg, i.v.): 16%
median T/C (tumour volume) ([5]; 60 mg/kg, i.v.): 0%
resistance factor [6]: 0,8
sensitivity of resistant line P388/VCR-20 relative to corresponding sensitive line [6]: more sensitive
resistance factor [7]: 10
resistance factor [8]: 0,5
sensitivity of resistant line S1/tMDR relative to corresponding sensitive line [8]: more sensitive
IC50 [9]: 4 nM
IC50 [10]: 120 nM
IC50 [11]: 25 nM
Survivors on d60/total no. of mice ([12]; 5 mg/kg): 1/10
T/C ([12]; 5 mg/kg): 163%
Survivors on d60/total no. of mice ([12]; 10 mg/kg): 1/10
T/C ([12]; 10 mg/kg): 183%
Survivors on d60/total no. of mice ([12]; 20 mg/kg): 2/10
T/C ([12]; 20 mg/kg): 220%
Survivors on d60/total no. of mice ([12]; 30 mg/kg): 3/10
T/C ([12]; 30 mg/kg): 200%
Survivors on d60/total no. of mice ([12]; 60 mg/kg): 3/10
T/C ([12]; 60 mg/kg): 257%
long-term survivors over all doses employed [12]: all the doses employed giving long-term survivors
cures, treated mice ([12]; single administration of 30 mg/kg): 7 out of 10

Cc1c2ccnc(C(=O)NCCN3CCCC3)c2cc2c3cc(O)ccc3n(C)c12 [Example 13, 1-[N-(2-Pyrrolidin-1-ylethyl)aminocarbonyl]-5,6-dimethyl-9-hydroxy-6H-pyrido[4,3-b]carbazole]
IC50 [1]: 13.1 nM

COc1ccc2[nH]c3c(C)c4ccnc(C(=O)NCCN5CCCC5)c4cc3c2c1 [Example 9, 1-[2-(Pyrrolidin-1-yl)ethylaminocarbonyl]-5-methyl-9-methoxy-6H-pyrido[4,3-b]carbazole]
IC50 [1]: 1500 nM
